Measurements as given in patent US7956089B2, “Cyclopropanecarboxylate and pest controlling composition containing the same” (Sumitomo Chemical Company, Limited, priority 2007, dated 2011).

Assays:
[1] = system: Culex pipiens pallens; experiment: Test Example 1: topical application of acetone solution to the nota of female imagoes, death rate; assay type: in vivo; settings: 0.015 μg of the test compound per mosquito, 0.005% (w/v) acetone solution, after 24 hours
Description: A 0.005% (w/v) solution of a test compound in acetone was prepared. The nota of 10 female imagoes of Culex pipiens pallens were treated with the acetone solution in an amount of 0.015 μg of the test compound per mosquito. Then, water and feed were given to the test mosquitoes. After 24 hours, the number of dead mosquitoes was counted, and a death rate was calculated (2 repetitions).

[2] = system: Culex pipiens pallens; experiment: Test Example 2: vapor exposure over treated aluminum dish in an inverted cup, knockdown rate; assay type: in vivo; settings: 0.002% (w/v) acetone solution, drug amount about 2 mg per 1 m^2, female imagos, after 60 minutes
Description: A 0.002% (w/v) solution of a test compound in acetone was prepared. Then, 0.64 ml of the acetone solution was dropped onto the bottom of an aluminum dish having a diameter of 9 cm. Then, acetone was air-dried (drug amount: about 2 mg per 1 m^2). Ten female imagos of Culex pipiens pallens were released in a polyethylene cup (diameter: 9 cm; height: 4.5 cm), and the upper opening portion of the polyethylene cup was covered with a 16 mesh nylon net. Next, the cup was inverted onto the aluminum dish. After 60 minutes, the number of knocked down mosquitoes was counted and a knockdown rate was calculated (2 repetitions). As a result, the knockdown rate of the present compound (1) was 70%.

COCc1c(F)c(F)c(COC(=O)[C@@H]2[C@@H](C)C2(C)C)c(F)c1F [Comparative compound (B), 4-methoxymethyl-2,3,5,6-tetrafluorobenzyl (1R)-trans-2,3,3-trimethylcyclopropanecarboxylate, reference compound]
Death rate (%) [1]: 55%

C#CCc1c(F)c(F)c(COC(=O)[C@@H]2[C@@H](C)C2(C)C)c(F)c1F [Present compound (1), 4-(2-propynyl)-2,3,5,6-tetrafluorobenzyl (1R)-trans-2,2,3-trimethylcyclopropanecarboxylate]
knockdown rate [2]: 70%
Death rate (%) [1]: 95%
